This note sets out measurements from PubChem BioAssay (NCI).

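Growth conditions: 96-well plates. Treatment: test compound, 48 hours, 5 concentrations. Analysis: linear interpolation between bracketing concentrations; unreached endpoints set to highest concentration. TGI marks complete inhibition of growth.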

Test systems include HCT-116 colon; NCI/ADR-RES ovarian; M14 melanoma; K-562 leukemia; SW-620 colon; HT29 colon; SR leukemia; PC-3 prostate; OVCAR-5 ovarian; MDA-MB-435; MALME-3M melanoma; RPMI-8226 leukemia; HS 578T breast; ACHN renal; BT-549 breast; OVCAR-8 ovarian; MDA-MB-231 breast; CAKI-1 renal; HL-60(TB) leukemia; M19-MEL melanoma.
Assay in all cases: DTP human tumour cell line panel, 48 h

As a reminder, the TGI is the concentration at which net growth stops. Higher therefore signals less potent growth arrest. As to `Cc1cc(S(=O)(=O)NC2=NC(c3ccccc3)c3ccccc3N2)c(S)cc1Cl` (configuration not stated), the TGI in the assay on HCT-116 colon, in the assay on NCI/ADR-RES ovarian, with M14 melanoma, with K-562 leukemia, in the assay on SW-620 colon and in the assay on HT29 colon was greater than 100 µM throughout. For the same molecule, the total growth inhibition concentration (TGI) in the assay with SR leukemia was 58.3 µM; in the assay with PC-3 prostate, 80.9 µM; in the assay on OVCAR-5 ovarian, greater than 100 µM; in the assay on MDA-MB-435 it was greater than 100 µM; in the assay with MALME-3M melanoma it was greater than 100 µM; in the assay on RPMI-8226 leukemia, greater than 100 µM. The TGI in the assay on HS 578T breast, with ACHN renal, in the assay with BT-549 breast, in the assay with OVCAR-8 ovarian, with MDA-MB-231 breast and in the assay on CAKI-1 renal was greater than 100 µM each time. The molecule further gave a TGI in the assay with HL-60(TB) leukemia greater than 100 µM.
As for `CC1(Br)C(=O)NC(=O)N(C2CC(N=[N+]=[N-])C(CO)O2)C1N=[N+]=[N-]` (configuration not stated), the total growth inhibition concentration (TGI) in the assay with M19-MEL melanoma, in the assay with M14 melanoma, with K-562 leukemia, in the assay with SW-620 colon, in the assay with HT29 colon and with OVCAR-5 ovarian was greater than 100 µM each time. The TGI in the assay on MALME-3M melanoma, in the assay on RPMI-8226 leukemia, in the assay on ACHN renal, with OVCAR-8 ovarian, in the assay with CAKI-1 renal and in the assay on HL-60(TB) leukemia was greater than 100 µM in each case.
With `Cc1nc(-c2nc(C)c(C(=O)NN(C)C)s2)sc1C(=O)NN(C)C`, the TGI in the assay on M19-MEL melanoma was greater than 100 µM; in the assay on M14 melanoma it was greater than 100 µM; with K-562 leukemia it was greater than 100 µM; with HT29 colon, greater than 100 µM; with SR leukemia, 40.7 µM; in the assay on OVCAR-5 ovarian it was greater than 100 µM. The TGI is greater than 100 µM in the assay on MALME-3M melanoma; 91.2 µM in the assay with RPMI-8226 leukemia; greater than 100 µM in the assay on ACHN renal; greater than 100 µM in the assay with OVCAR-8 ovarian; greater than 100 µM in the assay with CAKI-1 renal; greater than 100 µM with HL-60(TB) leukemia.
Turning to `CC(C)(C)OC(=O)NC(Cc1ccc(OCc2ccccc2)cn1)C(=O)NCc1ccccc1` (configuration not stated), the TGI is 83.6 µM with HCT-116 colon; 48.7 µM in the assay on NCI/ADR-RES ovarian; 47.8 µM in the assay with M14 melanoma; greater than 100 µM in the assay with K-562 leukemia; greater than 100 µM in the assay on SW-620 colon; greater than 100 µM in the assay on HT29 colon. Also, the TGI in the assay on SR leukemia was 30.5 µM; in the assay on PC-3 prostate, 53 µM; with OVCAR-5 ovarian, greater than 100 µM; in the assay with MDA-MB-435 it was 48.1 µM; with MALME-3M melanoma it was 65.7 µM; with RPMI-8226 leukemia it was 44.9 µM. Further, the concentration for total growth inhibition (TGI) is greater than 100 µM in the assay with HS 578T breast; greater than 100 µM with ACHN renal; 48.6 µM in the assay with BT-549 breast; 82.1 µM with OVCAR-8 ovarian; 75.1 µM in the assay with MDA-MB-231 breast; greater than 100 µM in the assay with CAKI-1 renal. This molecule also returned a TGI in the assay with HL-60(TB) leukemia of 33.7 µM.
Take `CCOC(=O)CCC(NC(=O)c1ccc(Nc2nc3ccccc3n3cccc23)cc1)C(=O)OCC` (configuration not stated): the TGI in the assay on HCT-116 colon is greater than 100 µM; in the assay on NCI/ADR-RES ovarian, 48.5 µM; in the assay on M14 melanoma it was greater than 100 µM; in the assay on K-562 leukemia it was greater than 100 µM; in the assay with SW-620 colon, greater than 100 µM; with HT29 colon, greater than 100 µM. For the same molecule, the TGI in the assay with SR leukemia is greater than 100 µM; in the assay on PC-3 prostate, 34.5 µM; with OVCAR-5 ovarian it was greater than 100 µM; with MDA-MB-435, greater than 100 µM; in the assay on MALME-3M melanoma, greater than 100 µM; with RPMI-8226 leukemia it was greater than 100 µM. For the same molecule, the TGI in the assay on HS 578T breast was greater than 100 µM; in the assay with ACHN renal, 46 µM; with BT-549 breast, 77.3 µM; in the assay with OVCAR-8 ovarian, 77.9 µM; in the assay with MDA-MB-231 breast, 48.4 µM; in the assay with CAKI-1 renal, greater than 100 µM. Further, the TGI in the assay on HL-60(TB) leukemia is greater than 100 µM.
In the case of `CC1=C(C#N)C2C(=C(N)Oc3ccccc32)C(N)=N1` (configuration not stated), the concentration for total growth inhibition (TGI) in the assay on HCT-116 colon was greater than 100 µM; in the assay on NCI/ADR-RES ovarian, 45.6 µM; in the assay with M14 melanoma it was 64.6 µM; with K-562 leukemia, 90.8 µM; in the assay with SW-620 colon it was greater than 100 µM; in the assay on HT29 colon, 87.7 µM. Besides, the TGI was greater than 100 µM in the assay with SR leukemia; greater than 100 µM in the assay with PC-3 prostate; 91.6 µM in the assay with OVCAR-5 ovarian; greater than 100 µM in the assay with MDA-MB-435; 35.5 µM with MALME-3M melanoma; 77.3 µM in the assay with RPMI-8226 leukemia. For the same molecule, the total growth inhibition concentration (TGI) in the assay on HS 578T breast stood at 72.1 µM; with ACHN renal it was 81.8 µM; with BT-549 breast, 93.5 µM; in the assay with OVCAR-8 ovarian, 56.8 µM; in the assay with MDA-MB-231 breast, 66.6 µM; in the assay on CAKI-1 renal, 53.9 µM. In addition, in the assay with HL-60(TB) leukemia, the TGI was greater than 100 µM.
Take `CCN(CC)CCOC(=O)CCN1CC2CCC(CC2)C1`: the TGI with HCT-116 colon, in the assay with NCI/ADR-RES ovarian, in the assay on M14 melanoma, with K-562 leukemia, with SW-620 colon and with HT29 colon was greater than 100 µM in each case. Further, the TGI in the assay on SR leukemia, in the assay on PC-3 prostate, with OVCAR-5 ovarian, with MDA-MB-435, with MALME-3M melanoma and with RPMI-8226 leukemia was greater than 100 µM each time. Also, the TGI in the assay with HS 578T breast, in the assay on ACHN renal, in the assay on BT-549 breast, in the assay with OVCAR-8 ovarian, in the assay with MDA-MB-231 breast and with CAKI-1 renal was greater than 100 µM in each case. In the assay with HL-60(TB) leukemia, the total growth inhibition concentration (TGI) was greater than 100 µM.
With `COc1cc(C(=O)C/C(CCC(=O)Nc2ccc(Cl)cc2Cl)=N/NC(=O)C(N)=O)ccc1O`, the TGI in the assay on M19-MEL melanoma, with HCT-116 colon, in the assay on M14 melanoma, in the assay with K-562 leukemia, in the assay with SW-620 colon and in the assay on HT29 colon was greater than 100 µM throughout. In addition, the TGI with OVCAR-5 ovarian, in the assay on MALME-3M melanoma, in the assay with RPMI-8226 leukemia, with ACHN renal, in the assay with OVCAR-8 ovarian and in the assay with CAKI-1 renal was greater than 100 µM each time. The molecule also came in with a TGI with HL-60(TB) leukemia greater than 100 µM.
